Laboratory results: patent publication US10548883B2, “Benzotriazole-derived α and β-unsaturated amide compound used as TGF-β RI inhibitor” (GENFLEET THERAPEUTICS (SHANGHAI) INC., priority 2016, dated 2020)
Where “and” joins values, the source holds several entries; their conditions need not be identical. Equal entries are not always repeated. One block for each compound: values may come before it.

How the values were obtained:
CT-26 cells = experiment: Tumor cell proliferation inhibition in BALB/c mouse model of subcutaneously transplanted CT-26 cells, alone or combined with BioXcell-mPD-L1; format: in vivo; settings: for Tumor volume: average ± SEM, small molecules 75 mg/kg PO twice a day, BioXcell-mPD-L1 10 mg/kg IP twice a week
Description: The following table lists the animal grouping and dosing regimen of embodiment 1, the positive reference compound LY2157299 and the BioXcell PD-L1 monoclonal antibody (BioXcell-mPD-L1), which are used alone or in combination in vivo.
Mouse colon cancer CT-26 cells were cultured in vitro in a single layer, and culture conditions is RPMI1640 medium (Medium No. 1640, Roswell Parker Memorial Institute) supplemented with 10% fetal bovine serum at 37° C., 5% CO2. Passage was routinely digested with trypsin-EDTA twice a week. When the cell saturation is 80%-90%, the cells are collected, counted, and inoculated.
0.1 mL (1×10^5) CT-26 cells were subcutaneously inoculated into the right back of each BALB/c mouse. The mice were administered in groups according to the body weight of the mice on the second day after cell inoculation.
The experimental indicator is to investigate whether tumor growth is inhibited, delayed or cured. Tumor diameters were measured with Vernier calipers twice a week. The tumor volume is calculated as: V=0.5a×b^2, and a and b represent the long and short diameters of the tumor, respectively.
The antitumor effect of the compound was evaluated by TGI (%) or tumor proliferation rate T/C (%). TGI (%) reflects the tumor growth inhibition rate. Calculation of TGI (%): TGI (%)=[(1-(mean tumor volume at the end of administration of a treatment group—mean tumor volume at the start of administration of the treatment group))/(mean tumor volume at the end of treatment of the solvent control group)—mean tumor volume at the start of treatment of the solvent control group)]×100%.
Tumor proliferation rate T/C (%): The formula is as follows: T/C %=T/C×100% (T: treatment group; C: negative control group).
Tumor weights were measured after the end of the experiment and the percentage of T/Cweight was calculated. Tweight and Cweight represent the tumor weights of the drug-administered group and the vehicle control group, respectively.
Statistical analysis, including mean and standard error (SEM) of tumor volume at each time point for each group (see Table 4 for specific data). […] T-test was used for comparison between the two groups, and one-way analysis of variance was used for comparison between three or more groups. If there was a significant difference in F values, the Gass-Howell method was used to test. If there is no significant difference in F values, the Dunnet (2-sided) method is used for analysis. All data analysis was performed with SPSS 17.0. A significant difference was considered at p<0.05.

[1] = tested on: mouse breast cancer 4T1 cells; experiment: Tumor cell metastasis inhibition in BALB/c mouse orthotopic transplantation model of mouse breast cancer 4T1 cells; format: in vivo; settings: 75 mg/kg PO once a day × 32
Description: Fluorescently labeled mouse breast cancer 4T1-Luc cells were expanded in vitro. Before the cells were collected, the mice were anesthetized with intraperitoneal injection of sodium pentobarbital. After anesthetized mice were fixed, the abdominal skin was disinfected with 70% alcohol. 100 uL of phosphate buffer (containing 0.5×10^6 4T1-luc2 cells) was inoculated into the left side of the fourth pair of abdominal mammary fat pads in mice, and the incision was sutured to disinfect the skin. The animals are kept warm with a warm blanket, observed until they wake up and put back in their cages. 0.1 mg/kg buprenorphine for pain relief was subcutaneously injected 30 min before surgery and 6 hours after surgery.
On the third day after modeling, the animals were subjected to bioluminescence detection by infrared data imaging, randomly grouped according to the fluorescence values, and administered according to the following experimental protocol, see Table 5.
To observe the inhibitory effect of embodiment 1 on tumor growth and metastasis, the experimental endpoint was designed to be 30-35 days after administration, with reference to historical data of the model. At the end of the experiment, the in situ tumor and various organ tissues were dissected, the tumor was weighed, and the fluorescence intensity of each organ was detected by IVIS fluorescence. Growth inhibition of orthotopic tumors can be compared by the weight of the in situ tumor in the experimental endpoint, and the inhibition curve is generated from the tumor volume measurement data twice a week during the experiment. The inhibition of tumor metastasis was determined by the presence or absence of fluorescence detection of each organ and the analysis of relative fluorescence intensity.
At the end of the experiment, the tumor weight will be detected and the relative tumor growth rate T/C (%) will be calculated; the tumor volume is calculated as: V=0.5a×b^2, and a and b represent the long and short diameters of the tumor, respectively. At the same time, the lung, liver, spleen, kidney, intestine and left upper limb were stripped, and fluorescence was detected to determine whether there was metastasis and metastasis intensity and ratio.
The antitumor effect of the compound was evaluated by the tumor growth inhibition rate TGI (%) or the relative tumor growth rate T/C (%).
Calculation of TGI (%): TGI (%)=[(1−mean tumor volume at the end of administration of a treatment group−mean tumor volume at the start of administration of the treatment group))/(mean tumor volume at the end of treatment of the solvent control group−mean tumor volume at the start of administration of the solvent control group)]×100%.
Relative tumor growth rate T/C (%) calculation: T/C(%)=Tt(treatment group)/Ct(control group)×100%, Tt is the average tumor volume at a certain measurement, and Ct takes the same day data.
The experimental results were statistically analyzed using one-way ANOVA. If there is a significant difference in F values, multiple comparisons should be made after ANOVA analysis. All data in this experiment were analyzed using SPSS 17.0. A significant difference was considered at p<0.05.
At the end of the experiment, each organ tissue was peeled off, and fluorescence imaging and fluorescence intensity value recording were measured by IVIS for 40 sec exposure within 8 min. The fluorescence imaging results of the tested tissues of the 10 animals excised by the maximum and minimum values are shown in Table 6.
According to the experimental end point, the fluorescence intensity of each group of organs was normalized by the control group, and the relative fluorescence intensity ratio of each group of organs was obtained. The ratio reflects the level of metastatic intensity on the corresponding organs.

liver cancer = settings: phase 2, patients with liver cancer; cited from earlier work
TGF-βRI = target: T1, TGF-βRI (Homo sapiens, UniProt P36897); experiment: Test of inhibitory activity of TGFβ-RI in vitro; format: biochemical; settings: 10 μM ATP
T1 sequence (P36897 34-503): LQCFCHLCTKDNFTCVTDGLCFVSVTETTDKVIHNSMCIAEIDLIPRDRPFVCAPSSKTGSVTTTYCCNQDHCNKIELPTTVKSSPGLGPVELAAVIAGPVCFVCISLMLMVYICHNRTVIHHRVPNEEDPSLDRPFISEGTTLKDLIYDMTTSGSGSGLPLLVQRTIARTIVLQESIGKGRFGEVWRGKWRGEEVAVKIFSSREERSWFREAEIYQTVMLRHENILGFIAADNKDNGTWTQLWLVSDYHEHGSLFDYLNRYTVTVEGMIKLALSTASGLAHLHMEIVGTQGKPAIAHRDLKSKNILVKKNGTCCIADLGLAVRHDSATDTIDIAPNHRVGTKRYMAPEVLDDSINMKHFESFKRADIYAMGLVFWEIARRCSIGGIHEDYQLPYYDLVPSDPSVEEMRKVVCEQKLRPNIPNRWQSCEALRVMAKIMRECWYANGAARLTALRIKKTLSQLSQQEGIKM
Description: i) Test compound: the IC50 was determined by diluting into 10 gradient points with each gradient by three-fold dilution and with a starting concentration of 5 μM.
ii) The IC50 of reference compound LDN193189 was determined by diluting into 10 gradient points with each gradient by three-fold dilution and with a starting concentration of 20 μM.
iii) The reaction system contains 10 μM ATP.
iv) Calculate the IC50 value by curve fitting when the percentage of enzyme activity (compared to the solvent group) is below 65% at the highest concentration of the sample.

[2] = tested on: NIH/3T3 mouse embryonic cells; experiment: Test of proliferation inhibition on NIH/3T3 mouse embryonic cells (CellTiter-Glo, with TGF-β1); format: cell-based; settings: NIH3T3, 0.2 ng/mL TGF-β1, 72 h
Description: Promega's Luminescent Cell Viability Assay (CellTiter-Glo® method, i.e. ATP fluorescence activity detection and analysis), the compound is added to the cell culture plate for incubation. A substrate buffer for detecting intracellular ATP content was added on the day of detection. Slightly shake and centrifuge at 1000 rpm for 1 min. Tested after standing for 10 min. The assay plate was analyzed using Envision multifunctional enzyme marker of PerkinElmer, Inc., and the analysis mode was fluorescence detection, and the data was expressed by the reading of chemiluminescence signal at 400-700 nm.
i) When the cell growth coverage is about 70%, the cell layer was washed with 10 mL of Duchenne phosphate buffer (D-PBS) which is calcium- and magnesium-free, then 2 mL of 0.25% trypsin-EDTA digest was added. The cell culture flask was placed in a CO2 carbon dioxide incubator at 37° C. and incubated for 3-5 min, then 8 mL of complete culture medium containing 2% FBS DMEM cells was added, and the cells were puffed evenly into single cell and counted by Vi-cell cytometer, and NIH/3T3 cell suspension was diluted to 0.375×10^5/mL cells.
ii) 50 μL of 2% DMEM-containing medium was added around the 384-well cell culture plate, then 40 μL of cell suspension was added to the remaining wells to 1500 cells per well. The distribution of the cells was observed under a microscope, and the cell plates were placed in a cell culture incubator with 5% CO2 at 37° C.
iii) Dilution of the compound refers to the preparation of the compound.
iv) A mixture of 2% fetal bovine serum containing 1 ng/mL TGF-β1 in DMEM medium was added manually to the compound intermediate plate, 20 μL per well.
v) The compound intermediate plate was shook slightly for 10 sec at 1000 rpm/min and centrifuge for 10 sec.
vi) 10 uL of the mixed liquid from steps 4 and 5 of each well was transferred to the inoculated cell plate to a final volume of 50 μL by using a Bravo liquid workstation, and the final concentration of TGF-β1 was diluted to 0.2 ng/mL, and centrifuged for 10 sec at 1000 rpm/min. The plates were placed in an incubator with 5% carbon dioxide at 37° C., 5% carbon dioxide for 72 h. The final concentration of the compound is: (unit: μM)
vii) The cell plate containing the compound was cultured in a cell incubator with 5% CO2 at 37° C. for 3 days.
viii) After that, 25 μL of ATP fluorescence activity detection solution was added to each well of the cell plate, then shook gently for about 1 min and centrifuged at 500 rpm/min for about 30 sec, and the reading was performed in an Envision instrument after standing at room temperature for 10 min in the dark.

[3] = animals with metastasis/animals in group
[4] = average organ fluorescence relative to control group

SMILES: Cc1cccc(-c2nn3c(c2-c2ccnc4ccc(C(N)=O)cc24)CCC3)n1 [LY2157299, Galunisertib, reference compound]
Tumor volume (CT-26 cells; day 10 of administration): 98 ± 14 mm^3
Tumor volume (CT-26 cells; day 13 of administration): 446 ± 104 mm^3
Tumor volume (CT-26 cells; day 15 of administration): 840 ± 177 mm^3
Tumor volume (CT-26 cells; day 17 of administration): 1256 ± 257 mm^3
Tumor volume (CT-26 cells; day 20 of administration): 2186 mm^3 and 2186 ± 435 mm^3
Tumor proliferation rate T/C (CT-26 cells; twenty days after start of administration, 75 mg/kg PO and/or 10 mg/kg IP): 85%
Antitumor effect compared with the solvent control group (CT-26 cells; twenty days after start of administration, 75 mg/kg and/or 10 mg/kg): no significant antitumor effect
Metastasis rate, intestine [1, 3]: 60%
Metastasis rate, kidney [1, 3]: 30%
Metastasis rate, liver [1, 3]: 80%
Metastasis rate, lung [1, 3]: 100%
Metastasis rate, spleen [1, 3]: 10%
Metastasis rate, upper limb [1, 3]: 70%
Metastasis level, intestine [1, 4]: 41%
Metastasis level, kidney [1, 4]: 121%
Metastasis level, liver [1, 4]: 31%
Metastasis level, lung [1, 4]: 20%
Metastasis level, spleen [1, 4]: 4%
Metastasis level, upper limb [1, 4]: 54%
Patients with a decrease in serum alpha-fetoprotein (AFP) level of more than 20% (liver cancer): about 23%

SMILES: Cc1cccc(-c2nn(Cc3cccc(C(F)F)c3)cc2-c2ccc3ncnn3c2/C=C/C(N)=O)n1 [Embodiment 9]
IC50 (TGF-βRI): 50 to 500 nM
IC50 [2]: 500 to 2000 nM

SMILES: Cc1cccc(-c2nn(C(C)C)cc2-c2ccc3ncnn3c2/C=C/C(N)=O)n1 [Embodiment 8]
IC50 (TGF-βRI): 50 to 500 nM
IC50 [2]: 2000 to 5000 nM

SMILES: Cc1cccc(-c2nn(Cc3cccc(C#N)c3)cc2-c2ccc3ncnn3c2/C=C/C(N)=O)n1 [Embodiment 6]
IC50 (TGF-βRI): 50 to 500 nM
IC50 [2]: 500 to 2000 nM

SMILES: Cc1cccc(-c2nn(C3CCCC3)cc2-c2ccc3ncnn3c2/C=C/C(N)=O)n1 [Embodiment 7]
IC50 (TGF-βRI): 50 to 500 nM

The next lines start with results.

IC50 (TGF-βRI): > 500 nM
SMILES: Cc1cc(C)nc(-c2nn3c(c2-c2ccc4ncnn4c2/C=C/C(N)=O)CCC3)c1 [Embodiment 11]

IC50 (TGF-βRI): 50 to 500 nM
SMILES: CNC(=O)/C=C/c1c(-c2c(-c3cccc(C)n3)nn3c2CCC3)ccc2ncnn12 [Embodiment 2]
IC50 [2]: 2000 to 5000 nM

IC50 (TGF-βRI): > 500 nM
SMILES: Cc1nc(-c2nn3c(c2-c2ccc4ncnn4c2/C=C/C(N)=O)CCC3)ccc1Cl [Embodiment 12]

IC50 (TGF-βRI): 50 to 500 nM
SMILES: Cc1cccc(-c2nn3c(c2-c2ccc4ncnn4c2/C=C/C(=O)NCCO)CCC3)n1 [Embodiment 5]
IC50 [2]: > 5000 nM

IC50 (TGF-βRI): 50 to 500 nM
SMILES: Cc1cccc(-c2nn3c(c2-c2ccc4ncnn4c2/C=C/C(=O)NC2CC2)CCC3)n1 [Embodiment 4]
IC50 [2]: 2000 to 5000 nM

IC50 (TGF-βRI): 50 to 500 nM
SMILES: CCc1cccc(-c2nn3c(c2-c2ccc4ncnn4c2/C=C/C(N)=O)CCC3)n1 [Embodiment 10]
IC50 [2]: 2000 to 5000 nM

IC50 (TGF-βRI): 50 to 500 nM
SMILES: CCNC(=O)/C=C/c1c(-c2c(-c3cccc(C)n3)nn3c2CCC3)ccc2ncnn12 [Embodiment 3]
IC50 [2]: 2000 to 5000 nM
